Values joined by “and” are separate entries in the source; they are usually repeats but may differ in a detail not shown here. Identical values can stand only once.
Experiments:
SfurOBP11 = SfurOBP11 (Sogatella furcifera, UniProt V5T6E3); assay: biochemical; assay type: binding
How it was run: (§1)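 Fluorescence competitive binding with 1-NPN as reporter: 2.0 µM protein and 2.0 µM 1-NPN in 50 mM Tris-HCl pH 7.4, odorant added at 2–20 µM final. Excitation 337 nm, emission 390–490 nm read 2 min after addition, triplicates. Ki = IC50/(1 + [1-NPN]/K1-NPN).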

SfurOBP2 = SfurOBP2 (Sogatella furcifera, UniProt V5T759); assay: biochemical; assay type: binding
How it was run: as §1

SfurOBP1 = SfurOBP1 (Sogatella furcifera, UniProt V5T8N5); assay: biochemical; assay type: binding; conditions: for Fluorescence competitive binding assay, fluorescence intensity: OBP1, three replicate columns
How it was run: as §1

SfurOBP3 = SfurOBP3 (Sogatella furcifera, UniProt V5T818); assay: biochemical; assay type: binding; conditions: for Fluorescence competitive binding assay, fluorescence intensity: OBP3, three replicate columns
How it was run: as §1

S. furcifera adults = assay: Y-tube olfactometer behavioral trials; assay type: in vivo, Sogatella furcifera; conditions: odorant 50 µL/L vs hexane
How it was run: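 Single S. furcifera adults (2 days post-emergence, starved 0.5 h) chose between odorant (100 µL of 50 µL/L on filter paper) and hexane control in a glass Y-tube, charcoal-filtered humidified air 300 mL/min per arm, 25 ± 1 °C, 50% RH. Choice scored if insect passed half an arm and stayed >1 min within 10 min; 45 insects per compound, chi-squared test.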

SfurOBP11, sequence (V5T6E3 entry or part of it): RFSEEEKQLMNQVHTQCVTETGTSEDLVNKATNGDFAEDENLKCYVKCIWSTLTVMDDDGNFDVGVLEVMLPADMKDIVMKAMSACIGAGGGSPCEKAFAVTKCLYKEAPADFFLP
SfurOBP3, sequence (V5T818 entry or part of it): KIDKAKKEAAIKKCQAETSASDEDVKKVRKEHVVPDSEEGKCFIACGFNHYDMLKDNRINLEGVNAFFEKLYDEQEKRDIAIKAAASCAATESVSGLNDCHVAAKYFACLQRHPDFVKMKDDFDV
SfurOBP1, sequence (V5T8N5 entry or part of it): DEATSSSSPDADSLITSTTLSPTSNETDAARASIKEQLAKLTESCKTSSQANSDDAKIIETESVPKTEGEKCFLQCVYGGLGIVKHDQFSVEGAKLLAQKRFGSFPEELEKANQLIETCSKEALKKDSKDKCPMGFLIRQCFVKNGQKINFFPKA
SfurOBP2, sequence (V5T759 entry or part of it): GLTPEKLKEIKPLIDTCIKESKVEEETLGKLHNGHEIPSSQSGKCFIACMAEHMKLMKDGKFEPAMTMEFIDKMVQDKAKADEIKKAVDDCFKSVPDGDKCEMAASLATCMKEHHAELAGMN

C=C(C)C1CC=C(C)CC1 (single isomer, unassigned; (+)) [(+)-limonene]
IC50 (SfurOBP11; SfurOBP11, protein and 1-NPN both 2.0 µM, competitor 2-20 µM, read-out: IC50): > 20 µM | Fluorescence intensity, fluorescence competitive binding assay, OBP11 (SfurOBP11; ligand concentration 2, replicate 1): 20185 | Fluorescence intensity, fluorescence competitive binding assay, OBP11 (SfurOBP11; ligand concentration 2, replicate 2): 20635 | Fluorescence intensity, fluorescence competitive binding assay, OBP11 (SfurOBP11; ligand concentration 2, replicate 3): 20374 | Fluorescence intensity, fluorescence competitive binding assay, OBP11 (SfurOBP11; ligand concentration 4, replicate 1): 19119 | Fluorescence intensity, fluorescence competitive binding assay, OBP11 (SfurOBP11; ligand concentration 4, replicate 2): 21150 | Fluorescence intensity, fluorescence competitive binding assay, OBP11 (SfurOBP11; ligand concentration 4, replicate 3): 19404 | Fluorescence intensity, fluorescence competitive binding assay, OBP11 (SfurOBP11; ligand concentration 6, replicate 1): 20124 | Fluorescence intensity, fluorescence competitive binding assay, OBP11 (SfurOBP11; ligand concentration 6, replicate 2): 20072 | Fluorescence intensity, fluorescence competitive binding assay, OBP11 (SfurOBP11; ligand concentration 6, replicate 3): 19868 | Fluorescence intensity, fluorescence competitive binding assay, OBP11 (SfurOBP11; ligand concentration 8, replicate 1): 18585 | Fluorescence intensity, fluorescence competitive binding assay, OBP11 (SfurOBP11; ligand concentration 8, replicate 2): 21246 | Fluorescence intensity, fluorescence competitive binding assay, OBP11 (SfurOBP11; ligand concentration 8, replicate 3): 19916 | Fluorescence intensity, fluorescence competitive binding assay, OBP11 (SfurOBP11; ligand concentration 10, replicate 1): 19564 | Fluorescence intensity, fluorescence competitive binding assay, OBP11 (SfurOBP11; ligand concentration 10, replicate 2): 19568 | Fluorescence intensity, fluorescence competitive binding assay, OBP11 (SfurOBP11; ligand concentration 10, replicate 3): 19649 | Fluorescence intensity, fluorescence competitive binding assay, OBP11 (SfurOBP11; ligand concentration 12, replicate 1): 19387 | Fluorescence intensity, fluorescence competitive binding assay, OBP11 (SfurOBP11; ligand concentration 12, replicate 2): 19954 | Fluorescence intensity, fluorescence competitive binding assay, OBP11 (SfurOBP11; ligand concentration 12, replicate 3): 20491 | Fluorescence intensity, fluorescence competitive binding assay, OBP11 (SfurOBP11; ligand concentration 14, replicate 1): 19217 | Fluorescence intensity, fluorescence competitive binding assay, OBP11 (SfurOBP11; ligand concentration 14, replicate 2): 19676 | Fluorescence intensity, fluorescence competitive binding assay, OBP11 (SfurOBP11; ligand concentration 14, replicate 3): 19052 | Fluorescence intensity, fluorescence competitive binding assay, OBP11 (SfurOBP11; ligand concentration 16, replicate 1): 18294 | Fluorescence intensity, fluorescence competitive binding assay, OBP11 (SfurOBP11; ligand concentration 16, replicate 2): 18202 | Fluorescence intensity, fluorescence competitive binding assay, OBP11 (SfurOBP11; ligand concentration 16, replicate 3): 18385 | Fluorescence intensity, fluorescence competitive binding assay, OBP11 (SfurOBP11; ligand concentration 18, replicate 1): 17514 | Fluorescence intensity, fluorescence competitive binding assay, OBP11 (SfurOBP11; ligand concentration 18, replicate 2): 18012 | Fluorescence intensity, fluorescence competitive binding assay, OBP11 (SfurOBP11; ligand concentration 18, replicate 3): 18287 | Fluorescence intensity, fluorescence competitive binding assay, OBP11 (SfurOBP11; ligand concentration 20, replicate 1): 16634 | Fluorescence intensity, fluorescence competitive binding assay, OBP11 (SfurOBP11; ligand concentration 20, replicate 2): 17062 | Fluorescence intensity, fluorescence competitive binding assay, OBP11 (SfurOBP11; ligand concentration 20, replicate 3): 17452 | IC50 (SfurOBP2; SfurOBP2, protein and 1-NPN both 2.0 µM, competitor 2-20 µM, read-out: IC50): > 20 µM | Fluorescence competitive binding assay, OBP2 (raw fluorescence reading) (SfurOBP2; ligand concentration 2 (unit not given), replicate column 1 of 3): 18785 | Fluorescence competitive binding assay, OBP2 (raw fluorescence reading) (SfurOBP2; ligand concentration 2 (unit not given), replicate column 2 of 3): 17646 | Fluorescence competitive binding assay, OBP2 (raw fluorescence reading) (SfurOBP2; ligand concentration 2 (unit not given), replicate column 3 of 3): 18955 | Fluorescence competitive binding assay, OBP2 (raw fluorescence reading) (SfurOBP2; ligand concentration 4 (unit not given), replicate column 1 of 3): 19168 | Fluorescence competitive binding assay, OBP2 (raw fluorescence reading) (SfurOBP2; ligand concentration 4 (unit not given), replicate column 2 of 3): 18029 | Fluorescence competitive binding assay, OBP2 (raw fluorescence reading) (SfurOBP2; ligand concentration 4 (unit not given), replicate column 3 of 3): 18599 | Fluorescence competitive binding assay, OBP2 (raw fluorescence reading) (SfurOBP2; ligand concentration 6 (unit not given), replicate column 1 of 3): 18726 | Fluorescence competitive binding assay, OBP2 (raw fluorescence reading) (SfurOBP2; ligand concentration 6 (unit not given), replicate column 2 of 3): 17846 | Fluorescence competitive binding assay, OBP2 (raw fluorescence reading) (SfurOBP2; ligand concentration 6 (unit not given), replicate column 3 of 3): 18376 | Fluorescence competitive binding assay, OBP2 (raw fluorescence reading) (SfurOBP2; ligand concentration 8 (unit not given), replicate column 1 of 3): 17673 | Fluorescence competitive binding assay, OBP2 (raw fluorescence reading) (SfurOBP2; ligand concentration 8 (unit not given), replicate column 2 of 3): 18323 | Fluorescence competitive binding assay, OBP2 (raw fluorescence reading) (SfurOBP2; ligand concentration 8 (unit not given), replicate column 3 of 3): 17474 | Fluorescence competitive binding assay, OBP2 (raw fluorescence reading) (SfurOBP2; ligand concentration 10 (unit not given), replicate column 1 of 3): 16329 | Fluorescence competitive binding assay, OBP2 (raw fluorescence reading) (SfurOBP2; ligand concentration 10 (unit not given), replicate column 2 of 3): 16489 | Fluorescence competitive binding assay, OBP2 (raw fluorescence reading) (SfurOBP2; ligand concentration 10 (unit not given), replicate column 3 of 3): 16675 | Fluorescence competitive binding assay, OBP2 (raw fluorescence reading) (SfurOBP2; ligand concentration 12 (unit not given), replicate column 1 of 3): 16493 | Fluorescence competitive binding assay, OBP2 (raw fluorescence reading) (SfurOBP2; ligand concentration 12 (unit not given), replicate column 2 of 3): 16176 | Fluorescence competitive binding assay, OBP2 (raw fluorescence reading) (SfurOBP2; ligand concentration 12 (unit not given), replicate column 3 of 3): 16335 | Fluorescence competitive binding assay, OBP2 (raw fluorescence reading) (SfurOBP2; ligand concentration 14 (unit not given), replicate column 1 of 3): 13873 | Fluorescence competitive binding assay, OBP2 (raw fluorescence reading) (SfurOBP2; ligand concentration 14 (unit not given), replicate column 2 of 3): 13950 | Fluorescence competitive binding assay, OBP2 (raw fluorescence reading) (SfurOBP2; ligand concentration 14 (unit not given), replicate column 3 of 3): 13912 | Fluorescence competitive binding assay, OBP2 (raw fluorescence reading) (SfurOBP2; ligand concentration 16 (unit not given), replicate column 1 of 3): 12506 | Fluorescence competitive binding assay, OBP2 (raw fluorescence reading) (SfurOBP2; ligand concentration 16 (unit not given), replicate column 2 of 3): 13445 | Fluorescence competitive binding assay, OBP2 (raw fluorescence reading) (SfurOBP2; ligand concentration 16 (unit not given), replicate column 3 of 3): 12627 | Fluorescence competitive binding assay, OBP2 (raw fluorescence reading) (SfurOBP2; ligand concentration 18 (unit not given), replicate column 1 of 3): 13201 | Fluorescence competitive binding assay, OBP2 (raw fluorescence reading) (SfurOBP2; ligand concentration 18 (unit not given), replicate column 2 of 3): 13156 | Fluorescence competitive binding assay, OBP2 (raw fluorescence reading) (SfurOBP2; ligand concentration 18 (unit not given), replicate column 3 of 3): 13110 | Fluorescence competitive binding assay, OBP2 (raw fluorescence reading) (SfurOBP2; ligand concentration 20 (unit not given), replicate column 1 of 3): 12573 | Fluorescence competitive binding assay, OBP2 (raw fluorescence reading) (SfurOBP2; ligand concentration 20 (unit not given), replicate column 2 of 3): 13554 | Fluorescence competitive binding assay, OBP2 (raw fluorescence reading) (SfurOBP2; ligand concentration 20 (unit not given), replicate column 3 of 3): 12438 | Fluorescence competitive binding assay, fluorescence intensity (SfurOBP1; ligand concentration 2 (μM)): 5110 and 5104 and 5112 | Fluorescence competitive binding assay, fluorescence intensity (SfurOBP1; ligand concentration 4 (μM)): 5716 and 6377 and 5308 | Fluorescence competitive binding assay, fluorescence intensity (SfurOBP1; ligand concentration 6 (μM)): 6462 and 7662 and 6319 | Fluorescence competitive binding assay, fluorescence intensity (SfurOBP1; ligand concentration 8 (μM)): 6113 and 5754 and 14807 | Fluorescence competitive binding assay, fluorescence intensity (SfurOBP1; ligand concentration 10 (μM)): 5995 and 6375 and 7413 | Fluorescence competitive binding assay, fluorescence intensity (SfurOBP1; ligand concentration 12 (μM)): 5970 and 7970 and 8226 | Fluorescence competitive binding assay, fluorescence intensity (SfurOBP1; ligand concentration 14 (μM)): 5770 and 8418 and 5488 | Fluorescence competitive binding assay, fluorescence intensity (SfurOBP1; ligand concentration 16 (μM)): 4972 and 5953 and 5038 | Fluorescence competitive binding assay, fluorescence intensity (SfurOBP1; ligand concentration 18 (μM)): 6525 and 7403 and 8592 | Fluorescence competitive binding assay, fluorescence intensity (SfurOBP1; ligand concentration 20 (μM)): 7343 and 8136 and 7739 | IC50 (SfurOBP1; SfurOBP1, protein and 1-NPN both 2.0 µM, competitor 2-20 µM, read-out: IC50): > 20 µM | Fluorescence competitive binding assay, fluorescence intensity (SfurOBP3; ligand concentration 2): 51848 and 49151 and 50500 | Fluorescence competitive binding assay, fluorescence intensity (SfurOBP3; ligand concentration 4): 50802 and 50041 and 48259 | Fluorescence competitive binding assay, fluorescence intensity (SfurOBP3; ligand concentration 6): 50158 and 49686 and 49223 | Fluorescence competitive binding assay, fluorescence intensity (SfurOBP3; ligand concentration 8): 48228 and 50693 and 49450 | Fluorescence competitive binding assay, fluorescence intensity (SfurOBP3; ligand concentration 10): 46402 and 47349 and 46178 | Fluorescence competitive binding assay, fluorescence intensity (SfurOBP3; ligand concentration 12): 39434 and 38976 and 40288 | Fluorescence competitive binding assay, fluorescence intensity (SfurOBP3; ligand concentration 14): 38805 and 38818 and 38804 | Fluorescence competitive binding assay, fluorescence intensity (SfurOBP3; ligand concentration 16): 34272 and 34325 and 34139 | Fluorescence competitive binding assay, fluorescence intensity (SfurOBP3; ligand concentration 18): 33102 and 34070 and 35044 | Fluorescence competitive binding assay, fluorescence intensity (SfurOBP3; ligand concentration 20): 32236 and 31361 and 31799 | IC50 (SfurOBP3; SfurOBP3, protein and 1-NPN both 2.0 µM, competitor 2-20 µM, read-out: IC50): > 20 µM | behavioral response of S. furcifera (in words) (S. furcifera adults): strongly attracted | number of insects choosing hexane arm (S. furcifera adults; adults): 7 | number of insects choosing volatilies arm (S. furcifera adults; adults): 16 | number of insects failed (no choice) (S. furcifera adults; adults): 17
